Measurements taken from patent publication US5352667A, “Non-peptidic surrogates of the Arg-Gly-Asp sequence and pharmaceutical compositions comprising them” (priority 1991, dated 1994).
Entries after “also recorded” stand apart in the source; their conditions may differ.

Tests used:
[1] = system: BHK cells and chick embryo fibroblasts; conditions: Yamada and Kennedy, 1987; cited from earlier work
[2] = system: trypsin; experiment: Treatment with trypsin (HPLC monitoring of hydrolysis); format: in vitro ADME; conditions: 0.25% trypsin, 37° C., HPLC at 220 nm, aliquots 5, 30, 60 min
Experimental: Compound SF-6,5 and the GRGDS peptide (50 μg in 100 μl PBS) were incubated at 37° C. and exposed to 0.25% trypsin (Gibco; 50μl in modified Puck's buffer). Aliquots were taken after 5, 30 and 60 min and monitored by HPLC at 220 nm.

[3] = system: CD4^+ T cell adhesion to FN; experiment: Inhibition of activated CD4+ T cell adhesion to FN; format: cell-based, human
Experimental: To examine the adhesive properties of the T cells, 1 μg/50 μl/well of either fibronectin (FN) (Sigma), the 120 kD cell attachment fragment of FN (Telios Pharm. Inc. San Diego, CA), or laminin (LN) (Sigma), were added to 96-flat bottom microtiter-wells for 12 h. Unbound proteins were then washed away and remaining binding sites were blocked with 0.1% bovine serum albumin (BSA) added to the wells for 2 h and washed. CD4+T cells were purified from peripheral blood mononuclear leukocytes obtained from healthy human donors. The mononuclear cells were isolated using a Ficoll gradient, washed and incubated in RPMI supplemented with 10% fetal calf serum (FCS) and antibiotics in petri dishes at 37° C. humidified CO2 incubator. After 2 h, the non-adherent cells were isolated and applied on nylon-wool columns (1.5 h). CD4^+ T cells were then negatively selected by exposure of the cells to a cocktail of anti-CD8, CD19, and CD14 monoclonal antibodies (mAb) conjugated to magnetic-beads (Advanced Magnetics, MA). Unbound cells were recovered and their phenotype was examined. Purity of the CD4^+ T cells was always greater than 92% as determined by FACScan.
The purified CD4^+ T cells were radioactively labeled with ^51 [Cr](New England Nuclear) in RPMI +20% FCS for 2 h and washed. The cells were counted and seeded (0.2×10^5 cells) on the precoated microtiter wells in the presence or the absence of the various inhibitors. Coating was made either with FN, the 120 kD cell-attachment fragment of FN or with control adhesive protein laminin (LN). The inhibitors were various surrogates according to the invention, other test molecules or mAb. After 30 min incubation (in […] CO2 -- humidified incubator) the T cells were activated by 10 ng/ml phorbol myristate acetate (PMA) and the percent of T cells attached to the protein substrates was measured. Unbound cells were washed away after 20-30 min, the bound cells were lysed and their radioactivity was measured using radioactive counter. The amount of the radioactivity of the cell lysates represent the matrix-adherent cells and percent binding was calculated in comparison to the total radioactivity added to the wells. Activated T cell adhesion to control wells or to wells coated with BSA was always 2-5%; the level of adhesion of the non-activated T cells was always below 5%. Where indicated, 1/200 diluted mAb anti-CD29 (anti-β1 mAb Serotec, GB), or 1/400 diluted anti-VLA5 (the β1α5 FN-integrin receptor) mAb (Telios Pharm. Inc. San Diego), or 0.2 mM of RGD, GRGDSPK or GRGESP peptides (Sigma) were used. […] The results shown in Tables 1A, 1B and 1C represent data obtained from several experiments that produced essentially similar results.
In a second series of experiments, FN was used in the adhesion assay carried out with the RGD surrogates NS-8, NS-11 and NS-15 in comparison to RGDS peptide.
In a third series of experiments, FN was used in the adhesion assay with the surrogates SF-6,5 and NS-11 and compared to the peptide GRGDSP.

[4] = system: tumor cell-induced metastases; experiment: Inhibition of tumor cell-induced metastases in C57BL/6 mice; format: in vivo; conditions: i.v. daily, 25μg of SF-6,5 per mouse, after induction of metastasis
[5] = target: T1, platelet GPIIb-IIIa receptor (Homo sapiens, UniProt P05106+P08514); experiment: Inhibition of ADP-induced platelet aggregation (platelet rich plasma); format: cell-based
T1 construct: Platelet concentrates were prepared from human whole blood; endogenous in cells; host or cells: human platelets in platelet rich plasma
T1 sequence (P08514 32-887 limits assumed): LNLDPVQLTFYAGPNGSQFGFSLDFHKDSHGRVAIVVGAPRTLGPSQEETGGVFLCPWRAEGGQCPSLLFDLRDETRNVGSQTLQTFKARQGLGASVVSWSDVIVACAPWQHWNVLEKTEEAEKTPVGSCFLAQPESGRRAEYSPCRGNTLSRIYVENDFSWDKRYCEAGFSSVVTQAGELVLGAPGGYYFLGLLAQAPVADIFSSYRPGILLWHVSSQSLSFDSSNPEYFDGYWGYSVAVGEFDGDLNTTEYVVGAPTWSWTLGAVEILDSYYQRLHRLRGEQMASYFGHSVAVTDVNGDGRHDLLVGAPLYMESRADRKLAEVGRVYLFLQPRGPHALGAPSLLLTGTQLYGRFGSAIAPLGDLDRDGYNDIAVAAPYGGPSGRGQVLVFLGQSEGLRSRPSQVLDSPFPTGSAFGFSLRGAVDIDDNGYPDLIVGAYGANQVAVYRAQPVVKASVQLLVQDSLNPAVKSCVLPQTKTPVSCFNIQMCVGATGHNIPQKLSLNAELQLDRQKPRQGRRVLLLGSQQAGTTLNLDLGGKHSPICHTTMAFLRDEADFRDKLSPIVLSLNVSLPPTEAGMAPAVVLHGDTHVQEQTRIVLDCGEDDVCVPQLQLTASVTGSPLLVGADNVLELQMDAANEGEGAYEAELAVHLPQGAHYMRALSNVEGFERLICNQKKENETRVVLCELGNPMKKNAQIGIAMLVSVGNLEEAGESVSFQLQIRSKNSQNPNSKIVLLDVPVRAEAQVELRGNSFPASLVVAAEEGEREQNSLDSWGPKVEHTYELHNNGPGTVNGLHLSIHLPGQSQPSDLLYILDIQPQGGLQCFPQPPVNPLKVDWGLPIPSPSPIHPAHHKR
T1 sequence (P08514 891-1039 limits assumed): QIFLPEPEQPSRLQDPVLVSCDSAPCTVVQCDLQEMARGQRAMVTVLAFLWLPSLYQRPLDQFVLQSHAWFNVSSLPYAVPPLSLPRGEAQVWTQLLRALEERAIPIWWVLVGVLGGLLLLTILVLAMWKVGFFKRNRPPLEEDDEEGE
T1 sequence (P05106 27-788): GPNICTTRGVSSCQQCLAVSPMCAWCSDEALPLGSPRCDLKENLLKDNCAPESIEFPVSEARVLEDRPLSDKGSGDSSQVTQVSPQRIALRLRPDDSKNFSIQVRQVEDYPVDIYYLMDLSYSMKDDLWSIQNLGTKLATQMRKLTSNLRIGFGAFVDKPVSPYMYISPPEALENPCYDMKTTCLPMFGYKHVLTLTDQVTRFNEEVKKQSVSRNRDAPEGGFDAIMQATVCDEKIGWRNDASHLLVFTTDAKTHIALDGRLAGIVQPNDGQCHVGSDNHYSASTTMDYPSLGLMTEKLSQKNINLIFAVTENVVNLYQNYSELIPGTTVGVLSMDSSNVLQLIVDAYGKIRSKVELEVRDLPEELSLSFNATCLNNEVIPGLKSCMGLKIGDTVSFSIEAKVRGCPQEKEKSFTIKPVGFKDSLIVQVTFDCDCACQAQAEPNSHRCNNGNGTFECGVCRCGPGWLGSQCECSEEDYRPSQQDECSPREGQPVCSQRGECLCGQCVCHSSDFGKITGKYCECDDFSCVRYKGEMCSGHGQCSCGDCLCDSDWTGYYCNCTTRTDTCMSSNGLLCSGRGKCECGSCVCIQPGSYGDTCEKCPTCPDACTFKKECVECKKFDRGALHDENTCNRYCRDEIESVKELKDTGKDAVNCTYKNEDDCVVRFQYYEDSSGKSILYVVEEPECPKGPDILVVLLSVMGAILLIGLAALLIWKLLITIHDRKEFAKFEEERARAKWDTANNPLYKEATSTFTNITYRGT
Experimental: To investigate the inhibitory role of the RGD analogues on adhesion, the platelet GPIIb-IIIa receptor which mediates platelet aggregation upon activation was used as a model.
Platelet concentrates were prepared from human whole blood in 10% adenine-citrate-dextrose in Fenwall bags (Baxter Travenol, Israel) followed by standard AABB protocol. Platelet rich plasma was prepared by centrifugation (2500 rpm for 5 min). Samples of platelets were counted in a Minos AST Cell Counter (Levoiselle, France). Cell aggregation was induced by […] and monitored at […] in a 4-channel Aggregometer (Bio-Data, Hatboro, Pa.). To evaluate the effect of the various RGD peptides and the peptide analogues, the platelet rich plasma was pre-incubated with the various inhibitors for 10 min at 37° C. with 10μsolutions followed by the induction of aggregation.
To examine the specificity of the inhibitory effect of the RGD-analogues on platelet aggregation, the cells were treated with various peptidic (RGD and GRGDSP) and non-peptidic (SF-6,6, SF-6,5 and AC-15) RGD analogues used at a fixed sub-saturating concentration of 0.5 mM.
An in vitro assay as described in Example 17 was carried out with the compound NS-11 to examine its ability to interfere with platelet aggregation, and compared it to the SF-6,5 surrogate.
Platelet rich plasma (PRP) was prepared from acid/citrate/dextrose anti-coagulated fresh human blood by differential centrifugation. Platelet aggregation was induced by […] and monitored at 695 nm by a 4-channel Aggregometer (Bio-Data, PA). To evaluate the effect of the RGDS peptide and the NS-8, NS-11 and NS-15 analogs, the PRP was preincubated with the inhibitors for 10 minutes at 37° C., prior to the induction of aggregation. […] In fact, 50% inhibition of platelet aggregation was achieved using a 30-fold lower concentration of NS-11 than that of RGDS.

[6] = system: B16-melanoma cells adhesion to FN; experiment: Inhibition of B16-melanoma cell adhesion to FN; format: cell-based, murine

For “Ser-Asp-Gly-Arg (SDGR; printed: Ser-Asp-Gly-Arg)”, the “Inhibition of cell spreading, in words” value [1] is listed as “inhibit spreading of BHK cells and chick embryo fibroblasts on vitronectin-coated substrates and on fibronectin-coated substrates”.

In the case of GRGDS [reference compound], the Stability to trypsin [2] is reported as “completely hydrolized after 5 min”.

For GRGDSP [reference compound], the “% Adhesion of activated CD4^+ T cell to FN: (% inhibition)” value ([3]; Conc. 25 μg. ml) was 40%, the “% Adhesion of activated CD4^+ T cell to FN: (% inhibition)” value ([3]; Conc. 50 μg. ml) was 50% and the “% Adhesion of activated CD4^+ T cell to FN: (% inhibition)” value ([3]; Conc. 100 μg. ml) was 75%. For the same molecule, the “Inhibition of tumor cell-induced metastases” value [4] was “failed to inhibit metastases”, the “Percent inhibition of aggregation” value ([5]; 0.1 mM, ADP-induced) was 75% and the “% Adhesion of activated tumor cells to FN: (% inhibition)” value ([6]; Conc. 25 μg. ml) was 30%. The “% Adhesion of activated tumor cells to FN: (% inhibition)” value ([6]; Conc. 50 μg. ml) was 40% and the “% Adhesion of activated tumor cells to FN: (% inhibition)” value ([6]; Conc. 100 μg. ml) was 65%.

With `N=C(N)NCCCC(=O)N1CCCC(C(=O)NCCC(=O)O)C1` (stereo not shown) [NS-11] the “% Adhesion of activated CD4^+ T cell to FN: (% inhibition)” value ([3]; Conc. 25 μg. ml) was 30%, the “% Adhesion of activated CD4^+ T cell to FN: (% inhibition)” value ([3]; Conc. 50 μg. ml) was 50% and the “% Adhesion of activated CD4^+ T cell to FN: (% inhibition)” value ([3]; Conc. 100 μg. ml) was 85%. For the same molecule, the “Inhibition of cell adhesion relative to RGDS, in words” value ([3]; Table 1B) was “better inhibitor of cell adhesion than the RGDS peptide”, the “% Inhibition of adhesion” value ([3]; Table 1B, surrogates 0.2 mM, CD4^+ T cell to FN) was 71% and the “% Adhesion of activated CD4^+ to FN” value ([3]; Table 1B, surrogates 0.2 mM, none 65) was 19%. The inhibition at 100 µM ([5]; 0.1 mM, ADP-induced, read-out: Percent inhibition of aggregation) was 90%, the “Effect on platelet aggregation better than that of the RGD-peptide by” value ([5]; 0.1 mM, same concentration) was about 20% and the inhibition at 300 µM ([5]; 0.3 mM, ADP-induced, read-out: Percent inhibition of aggregation) was 100%. The “Inhibition of platelet aggregation, comparison in words” value ([5]; FIG. 5, Example 19) was “better inhibitor of platelet aggregation than either NS-8 and NS-15; also recorded: found to inhibit platelet aggregation better than the RGD-containing peptide (RGDS)”, the “50% inhibition of platelet aggregation: lower concentration than that of RGDS” value ([5]; FIG. 5, vs RGDS) was 30 fold and the “Inhibition of platelet aggregation, in words” value ([5]; Table 3) was “better inhibitor of platelet aggregation than SF-6,5; also recorded: significantly better inhibitor than the RGD-containing peptide”. The “% Adhesion of activated tumor cells to FN: (% inhibition)” value ([6]; Conc. 25 μg. ml) was 35%, the “% Adhesion of activated tumor cells to FN: (% inhibition)” value ([6]; Conc. 50 μg. ml) was 45% and the “% Adhesion of activated tumor cells to FN: (% inhibition)” value ([6]; Conc. 100 μg. ml) was 70%.
